Experimental data published in the NIST ThermoML archive (doi:10.1016/j.fluid.2015.04.017).
Numbers after ± are expanded uncertainties.

Assay: not given
Conditions: 298.15 K; 101.33 kPa; Liquid; Concentric cylinders viscometry

Row | SMILES | viscosity
1 | CCOC(=O)C(C)O (racemic) [DL-ethyl lactate] | 2.39 ± 0.025 mPa·s
2 | CN1CCCC1=O [N-methylpyrrolidone] | 1.757 ± 0.017 mPa·s
3 | CCC(C)=O [butanone] | 0.3888 ± 0.0057 mPa·s
4 | Cc1ccccc1 [toluene] | 0.567 ± 0.007 mPa·s

Same assay, conditions: 298.15 K; 101.33 kPa; Liquid; Vibrating tube method

Row | SMILES | mass density
5 | CCOC(=O)C(C)O (racemic) [DL-ethyl lactate] | 1028.39 ± 0.25 kg/m3
6 | CN1CCCC1=O [N-methylpyrrolidone] | 1030.45 ± 0.099 kg/m3
7 | CCC(C)=O [butanone] | 800.872 ± 0.14 kg/m3
8 | Cc1ccccc1 [toluene] | 862.206 ± 0.12 kg/m3

Assay: refractive index (Na D-line) (dimensionless)
Conditions: 298.15 K; 101.33 kPa; Liquid; Standard Abbe refractometry

Row | SMILES | refractive index
9 | CCOC(=O)C(C)O (racemic) [DL-ethyl lactate] | 1.41076 ± 0.00037
10 | CN1CCCC1=O [N-methylpyrrolidone] | 1.4687 ± 0.00033
11 | CCC(C)=O [butanone] | 1.37662 ± 0.00033
12 | Cc1ccccc1 [toluene] | 1.49299 ± 0.00033

Assay: xn = mol fraction of the nth substance listed
Conditions: 288.15 K; 101 kPa; Liquid; Concentric cylinders viscometry; x2 = 0

Row | SMILES | viscosity
13 | CN1CCCC1=O [N-methylpyrrolidone] + CCOC(=O)C(C)O | 2.088 ± 0.02 mPa·s
14 | CCC(C)=O [butanone] + CCOC(=O)C(C)O | 0.4217 ± 0.0059 mPa·s
15 | Cc1ccccc1 [toluene] + CCOC(=O)C(C)O | 0.6251 ± 0.0075 mPa·s

Same assay, conditions: 288.15 K; 101 kPa; Liquid; Vibrating tube method; x2 = 0

Row | SMILES | mass density
16 | CN1CCCC1=O [N-methylpyrrolidone] + CCOC(=O)C(C)O | 1039.4 ± 0.1 kg/m3
17 | CCC(C)=O [butanone] + CCOC(=O)C(C)O | 811.324 ± 0.14 kg/m3
18 | Cc1ccccc1 [toluene] + CCOC(=O)C(C)O | 871.501 ± 0.12 kg/m3

Same assay, conditions: 293.15 K; 101 kPa; Liquid; Concentric cylinders viscometry; x2 = 0

Row | SMILES | viscosity
19 | CN1CCCC1=O [N-methylpyrrolidone] + CCOC(=O)C(C)O | 1.91 ± 0.018 mPa·s
20 | CCC(C)=O [butanone] + CCOC(=O)C(C)O | 0.4054 ± 0.0058 mPa·s
21 | Cc1ccccc1 [toluene] + CCOC(=O)C(C)O | 0.5961 ± 0.0072 mPa·s

Same assay, conditions: 293.15 K; 101 kPa; Liquid; Vibrating tube method; x2 = 0

Row | SMILES | mass density
22 | CN1CCCC1=O [N-methylpyrrolidone] + CCOC(=O)C(C)O | 1034.92 ± 0.099 kg/m3
23 | CCC(C)=O [butanone] + CCOC(=O)C(C)O | 806.111 ± 0.14 kg/m3
24 | Cc1ccccc1 [toluene] + CCOC(=O)C(C)O | 866.859 ± 0.12 kg/m3

Same assay, conditions: 298.15 K; 101 kPa; Liquid; Concentric cylinders viscometry; x2 = 0

Row | SMILES | viscosity
25 | CN1CCCC1=O [N-methylpyrrolidone] + CCOC(=O)C(C)O | 1.757 ± 0.017 mPa·s
26 | CCC(C)=O [butanone] + CCOC(=O)C(C)O | 0.3888 ± 0.0057 mPa·s
27 | Cc1ccccc1 [toluene] + CCOC(=O)C(C)O | 0.567 ± 0.007 mPa·s

Same assay, conditions: 298.15 K; 101 kPa; Liquid; Vibrating tube method; x2 = 0

Row | SMILES | mass density
28 | CN1CCCC1=O [N-methylpyrrolidone] + CCOC(=O)C(C)O | 1030.45 ± 0.096 kg/m3
29 | CCC(C)=O [butanone] + CCOC(=O)C(C)O | 800.872 ± 0.14 kg/m3
30 | Cc1ccccc1 [toluene] + CCOC(=O)C(C)O | 862.206 ± 0.12 kg/m3

Same assay, conditions: 303.15 K; 101 kPa; Liquid; Concentric cylinders viscometry; x2 = 0

Row | SMILES | viscosity
31 | CN1CCCC1=O [N-methylpyrrolidone] + CCOC(=O)C(C)O | 1.623 ± 0.016 mPa·s
32 | CCC(C)=O [butanone] + CCOC(=O)C(C)O | 0.3712 ± 0.0055 mPa·s
33 | Cc1ccccc1 [toluene] + CCOC(=O)C(C)O | 0.54 ± 0.0068 mPa·s

Same assay, conditions: 303.15 K; 101 kPa; Liquid; Vibrating tube method; x2 = 0

Row | SMILES | mass density
34 | CN1CCCC1=O [N-methylpyrrolidone] + CCOC(=O)C(C)O | 1025.99 ± 0.094 kg/m3
35 | CCC(C)=O [butanone] + CCOC(=O)C(C)O | 795.603 ± 0.14 kg/m3
36 | Cc1ccccc1 [toluene] + CCOC(=O)C(C)O | 857.541 ± 0.12 kg/m3

Same assay, conditions: 308.15 K; 101 kPa; Liquid; Concentric cylinders viscometry; x2 = 0

Row | SMILES | viscosity
37 | CN1CCCC1=O [N-methylpyrrolidone] + CCOC(=O)C(C)O | 1.505 ± 0.015 mPa·s
38 | CCC(C)=O [butanone] + CCOC(=O)C(C)O | 0.3542 ± 0.0054 mPa·s
39 | Cc1ccccc1 [toluene] + CCOC(=O)C(C)O | 0.5128 ± 0.0066 mPa·s

Same assay, conditions: 308.15 K; 101 kPa; Liquid; Vibrating tube method; x2 = 0

Row | SMILES | mass density
40 | CN1CCCC1=O [N-methylpyrrolidone] + CCOC(=O)C(C)O | 1021.52 ± 0.092 kg/m3
41 | CCC(C)=O [butanone] + CCOC(=O)C(C)O | 790.3 ± 0.14 kg/m3
42 | Cc1ccccc1 [toluene] + CCOC(=O)C(C)O | 852.861 ± 0.13 kg/m3

Same assay, conditions: 313.15 K; 101 kPa; Liquid; Concentric cylinders viscometry; x2 = 0

Row | SMILES | viscosity
43 | CN1CCCC1=O [N-methylpyrrolidone] + CCOC(=O)C(C)O | 1.401 ± 0.014 mPa·s
44 | CCC(C)=O [butanone] + CCOC(=O)C(C)O | 0.3368 ± 0.0053 mPa·s
45 | Cc1ccccc1 [toluene] + CCOC(=O)C(C)O | 0.4866 ± 0.0064 mPa·s

Same assay, conditions: 313.15 K; 101 kPa; Liquid; Vibrating tube method; x2 = 0

Row | SMILES | mass density
46 | CN1CCCC1=O [N-methylpyrrolidone] + CCOC(=O)C(C)O | 1017.07 ± 0.09 kg/m3
47 | CCC(C)=O [butanone] + CCOC(=O)C(C)O | 784.965 ± 0.15 kg/m3
48 | Cc1ccccc1 [toluene] + CCOC(=O)C(C)O | 848.164 ± 0.13 kg/m3

Same assay, conditions: 318.15 K; 101 kPa; Liquid; Concentric cylinders viscometry; x2 = 0

Row | SMILES | viscosity
49 | CN1CCCC1=O [N-methylpyrrolidone] + CCOC(=O)C(C)O | 1.307 ± 0.013 mPa·s
50 | CCC(C)=O [butanone] + CCOC(=O)C(C)O | 0.3194 ± 0.0052 mPa·s
51 | Cc1ccccc1 [toluene] + CCOC(=O)C(C)O | 0.462 ± 0.0062 mPa·s

Same assay, conditions: 318.15 K; 101 kPa; Liquid; Vibrating tube method; x2 = 0

Row | SMILES | mass density
52 | CN1CCCC1=O [N-methylpyrrolidone] + CCOC(=O)C(C)O | 1012.61 ± 0.088 kg/m3
53 | CCC(C)=O [butanone] + CCOC(=O)C(C)O | 779.589 ± 0.15 kg/m3
54 | Cc1ccccc1 [toluene] + CCOC(=O)C(C)O | 843.444 ± 0.13 kg/m3

Same assay, conditions: 323.15 K; 101 kPa; Liquid; Concentric cylinders viscometry; x2 = 0

Row | SMILES | viscosity
55 | CN1CCCC1=O [N-methylpyrrolidone] + CCOC(=O)C(C)O | 1.231 ± 0.013 mPa·s
56 | CCC(C)=O [butanone] + CCOC(=O)C(C)O | 0.3036 ± 0.0051 mPa·s
57 | Cc1ccccc1 [toluene] + CCOC(=O)C(C)O | 0.4435 ± 0.0061 mPa·s

Same assay, conditions: 323.15 K; 101 kPa; Liquid; Vibrating tube method; x2 = 0

Row | SMILES | mass density
58 | CN1CCCC1=O [N-methylpyrrolidone] + CCOC(=O)C(C)O | 1008.16 ± 0.086 kg/m3
59 | CCC(C)=O [butanone] + CCOC(=O)C(C)O | 774.175 ± 0.15 kg/m3
60 | Cc1ccccc1 [toluene] + CCOC(=O)C(C)O | 838.707 ± 0.13 kg/m3

Assay: refractive index (Na D-line) (dimensionless); xn = mol fraction of the nth substance listed
Conditions: 288.15 K; 101 kPa; Liquid; Standard Abbe refractometry; x2 = 0

Row | SMILES | refractive index
61 | CN1CCCC1=O [N-methylpyrrolidone] + CCOC(=O)C(C)O | 1.47305 ± 0.00033
62 | CCC(C)=O [butanone] + CCOC(=O)C(C)O | 1.3817 ± 0.00033
63 | Cc1ccccc1 [toluene] + CCOC(=O)C(C)O | 1.49883 ± 0.00033

Same assay, conditions: 293.15 K; 101 kPa; Liquid; Standard Abbe refractometry; x2 = 0

Row | SMILES | refractive index
64 | CN1CCCC1=O [N-methylpyrrolidone] + CCOC(=O)C(C)O | 1.47088 ± 0.00033
65 | CCC(C)=O [butanone] + CCOC(=O)C(C)O | 1.37918 ± 0.00033
66 | Cc1ccccc1 [toluene] + CCOC(=O)C(C)O | 1.49592 ± 0.00033

Same assay, conditions: 298.15 K; 101 kPa; Liquid; Standard Abbe refractometry; x2 = 0

Row | SMILES | refractive index
67 | CN1CCCC1=O [N-methylpyrrolidone] + CCOC(=O)C(C)O | 1.4687 ± 0.00033
68 | CCC(C)=O [butanone] + CCOC(=O)C(C)O | 1.37662 ± 0.00033
69 | Cc1ccccc1 [toluene] + CCOC(=O)C(C)O | 1.49299 ± 0.00033

Same assay, conditions: 303.15 K; 101 kPa; Liquid; Standard Abbe refractometry; x2 = 0

Row | SMILES | refractive index
70 | CN1CCCC1=O [N-methylpyrrolidone] + CCOC(=O)C(C)O | 1.46651 ± 0.00033
71 | CCC(C)=O [butanone] + CCOC(=O)C(C)O | 1.37402 ± 0.00033
72 | Cc1ccccc1 [toluene] + CCOC(=O)C(C)O | 1.49012 ± 0.00033

Same assay, conditions: 308.15 K; 101 kPa; Liquid; Standard Abbe refractometry; x2 = 0

Row | SMILES | refractive index
73 | CN1CCCC1=O [N-methylpyrrolidone] + CCOC(=O)C(C)O | 1.46434 ± 0.00033
74 | CCC(C)=O [butanone] + CCOC(=O)C(C)O | 1.37138 ± 0.00033
75 | Cc1ccccc1 [toluene] + CCOC(=O)C(C)O | 1.48731 ± 0.00033

Same assay, conditions: 313.15 K; 101 kPa; Liquid; Standard Abbe refractometry; x2 = 0

Row | SMILES | refractive index
76 | CN1CCCC1=O [N-methylpyrrolidone] + CCOC(=O)C(C)O | 1.46211 ± 0.00033
77 | CCC(C)=O [butanone] + CCOC(=O)C(C)O | 1.36871 ± 0.00033
78 | Cc1ccccc1 [toluene] + CCOC(=O)C(C)O | 1.48454 ± 0.00033

Same assay, conditions: 318.15 K; 101 kPa; Liquid; Standard Abbe refractometry; x2 = 0

Row | SMILES | refractive index
79 | CN1CCCC1=O [N-methylpyrrolidone] + CCOC(=O)C(C)O | 1.45998 ± 0.00033
80 | CCC(C)=O [butanone] + CCOC(=O)C(C)O | 1.36615 ± 0.00033
81 | Cc1ccccc1 [toluene] + CCOC(=O)C(C)O | 1.48195 ± 0.00033

Same assay, conditions: 323.15 K; 101 kPa; Liquid; Standard Abbe refractometry; x2 = 0

Row | SMILES | refractive index
82 | CN1CCCC1=O [N-methylpyrrolidone] + CCOC(=O)C(C)O | 1.45783 ± 0.00033
83 | CCC(C)=O [butanone] + CCOC(=O)C(C)O | 1.36338 ± 0.00033
84 | Cc1ccccc1 [toluene] + CCOC(=O)C(C)O | 1.47928 ± 0.00033
